According to paper PMC9453066, “Targeted control of pneumolysin production by a mobile genetic element in Streptococcus pneumoniae” (Microbial Genomics, 2022):

Test system: ZomB
Settings: saturating ssDNA (poly(dT)); 1 mM MgCl2, 50 mM NaCl, 2 mM DTT, 20 mM Tris-Cl pH 8.0, 25 °C; 50 nM ZomB

Nc1ncnc2c1ncn2[C@@H]1O[C@H](COP(=O)(O)OP(=O)(O)OP(=O)(O)O)[C@@H](O)[C@H]1O [ATP]
Km: 90 µM
